pIC50: −log10 of the molar value.
How the values were obtained:
[1] = molecular target: Tryptophan 2,3-dioxygenase (Homo sapiens, UniProt P48775); test: Inhibition of human TDO expressed in Escherichia coli Rosetta using tryptophan as substrate incubated for 1 hr by methylene blue based assay
[2] = molecular target: T1, Indoleamine 2,3-dioxygenase 1 (Homo sapiens, UniProt P14902); test: Inhibition of human IDO1 expressed in Escherichia coli Rosetta using tryptophan as substrate incubated for 1 hr by methylene blue based assay
T1 sequence (P14902 whole entry): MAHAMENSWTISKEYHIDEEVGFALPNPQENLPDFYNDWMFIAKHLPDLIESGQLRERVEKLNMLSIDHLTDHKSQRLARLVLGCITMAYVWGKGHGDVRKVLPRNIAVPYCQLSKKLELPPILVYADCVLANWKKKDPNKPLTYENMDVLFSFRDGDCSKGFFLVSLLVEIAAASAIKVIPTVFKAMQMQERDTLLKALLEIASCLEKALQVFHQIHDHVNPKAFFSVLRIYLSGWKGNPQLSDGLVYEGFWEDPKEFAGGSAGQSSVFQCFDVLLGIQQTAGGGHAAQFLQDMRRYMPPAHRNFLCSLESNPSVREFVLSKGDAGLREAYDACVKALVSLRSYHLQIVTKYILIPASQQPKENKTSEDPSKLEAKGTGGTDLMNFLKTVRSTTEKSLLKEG

[3] = molecular target: T1, Indoleamine 2,3-dioxygenase 1; test: Inhibition of IDO1 in IFNgamma-stimulated human HeLa cells using L-tryptophan as substrate measured after 48 hrs
[4] = Oral bioavailability in C57BL/6 mouse at 3 mg/kg measured up to 24 hrs; assay type: ADME, organism-based; conditions: in vivo
[5] = Cmax in Sprague-Dawley rat at 3 mg/kg, po measured up to 24 hrs; assay type: ADME, organism-based; design: route oral, dose 3 mg/kg, time <=24; conditions: in vivo
[6] = Half life in Sprague-Dawley rat at 3 mg/kg, po measured up to 24 hrs; assay type: ADME, organism-based; conditions: in vivo
[7] = Clearance in Sprague-Dawley rat at 3 mg/kg, po measured up to 24 hrs; assay type: ADME, organism-based; conditions: in vivo
[8] = Oral bioavailability in Beagle dog at 2 mg/kg measured up to 24 hrs; assay type: ADME, organism-based, Canis lupus familiaris; conditions: in vivo
[9] = tested on: MC-38; test: Antitumor activity against mouse MC38 cells xenograted in po dosed humanized PD-1 mouse assessed as tumor growth inhibition administered twice for 14 days in combination with PD-1 antibody at 3 mg/kg, ip qod for 8 days by digital caliper method; assay type: functional, organism-based; conditions: time 14.0 day
[10] = Clearance in C57BL/6 mouse at 3 mg/kg, po measured up to 24 hrs; assay type: ADME, organism-based; conditions: in vivo
[11] = molecular target: T2, Cytochrome P450 1A2 (Homo sapiens, UniProt P05177); test: Inhibition of CYP1A2 in human liver microsomes using phenacetin as substrate incubated for 10 mins in presence of NADPH by UHPLC-MS/MS analysis; assay type: ADME
T2 sequence (P05177 whole entry): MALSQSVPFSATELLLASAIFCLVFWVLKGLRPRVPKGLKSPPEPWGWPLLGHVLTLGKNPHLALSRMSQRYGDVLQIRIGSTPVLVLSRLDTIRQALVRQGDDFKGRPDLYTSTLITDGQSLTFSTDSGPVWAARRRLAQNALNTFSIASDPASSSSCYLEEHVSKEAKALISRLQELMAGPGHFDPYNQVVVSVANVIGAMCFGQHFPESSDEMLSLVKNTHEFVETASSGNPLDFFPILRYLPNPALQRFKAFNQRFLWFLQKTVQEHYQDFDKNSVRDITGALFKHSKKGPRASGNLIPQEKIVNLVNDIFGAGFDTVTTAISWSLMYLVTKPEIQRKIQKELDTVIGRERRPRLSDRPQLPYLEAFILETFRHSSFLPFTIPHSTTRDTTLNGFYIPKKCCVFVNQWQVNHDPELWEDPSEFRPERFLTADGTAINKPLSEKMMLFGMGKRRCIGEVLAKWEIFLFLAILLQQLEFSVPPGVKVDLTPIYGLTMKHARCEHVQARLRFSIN

[12] = Half life in human liver microsomes; assay type: ADME, Microsome
[13] = tested on: MC-38; test: Antitumor activity against mouse MC38 cells xenograted in humanized PD-1 mouse assessed as tumor growth inhibition at 300 mg/kg, po bid for 14 days in combination with PD-1 antibody at 3 mg/kg, ip qod for 8 days by digital caliper method relative to control; assay type: functional; conditions: MC-38, 336 h, time 14 day, read-out: TGI
[14] = AUC in Beagle dog at 2 mg/kg, po measured up to 24 hrs; assay type: ADME, organism-based, Canis lupus familiaris; design: route oral, dose 2 mg/kg, time <=24; conditions: in vivo
[15] = molecular target: Cytochrome P450 3A4 (Homo sapiens, UniProt P08684); test: Inhibition of CYP3A4 in human liver microsomes using midazolam as substrate incubated for 10 mins in presence of NADPH by UHPLC-MS/MS analysis; assay type: ADME
Chain of Cytochrome P450 3A4 (P08684 whole entry): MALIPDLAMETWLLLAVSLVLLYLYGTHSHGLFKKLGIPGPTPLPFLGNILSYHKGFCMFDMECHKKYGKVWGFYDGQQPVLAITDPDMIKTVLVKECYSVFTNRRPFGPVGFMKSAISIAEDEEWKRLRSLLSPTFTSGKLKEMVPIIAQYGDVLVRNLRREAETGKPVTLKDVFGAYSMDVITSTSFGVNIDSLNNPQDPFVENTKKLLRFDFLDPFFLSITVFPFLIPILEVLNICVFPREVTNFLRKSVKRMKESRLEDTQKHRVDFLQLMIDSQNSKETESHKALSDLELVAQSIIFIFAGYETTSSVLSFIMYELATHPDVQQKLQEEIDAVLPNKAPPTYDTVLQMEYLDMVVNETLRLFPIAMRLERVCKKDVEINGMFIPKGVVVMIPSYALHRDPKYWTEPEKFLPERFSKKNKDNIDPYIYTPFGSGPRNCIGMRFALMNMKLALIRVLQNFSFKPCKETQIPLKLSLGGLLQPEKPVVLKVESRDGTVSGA

[16] = AUC in Sprague-Dawley rat at 3 mg/kg, po measured up to 24 hrs; assay type: ADME, organism-based; design: route oral, dose 3 mg/kg, time <=24; conditions: in vivo
[17] = AUC in C57BL/6 mouse at 3 mg/kg, po measured up to 24 hrs; assay type: ADME, organism-based; design: route oral, dose 3 mg/kg, time <=24; conditions: in vivo
[18] = Cmax in C57BL/6 mouse at 3 mg/kg, po measured up to 24 hrs; assay type: ADME, organism-based; design: route oral, dose 3 mg/kg, time <=24; conditions: in vivo
[19] = Cmax in Beagle dog at 2 mg/kg, po measured up to 24 hrs; assay type: ADME, organism-based, Canis lupus familiaris; design: route oral, dose 2 mg/kg, time <=24; conditions: in vivo
[20] = tested on: MC-38; test: Antitumor activity against mouse MC38 cells xenograted in humanized PD-1 mouse assessed as tumor growth inhibition at 150 mg/kg, po bid for 14 days in combination with PD-1 antibody at 3 mg/kg, ip qod for 8 days by digital caliper method relative to control; assay type: functional; conditions: MC-38, 336 h, time 14 day, read-out: TGI
[21] = Half life in Beagle dog at 2 mg/kg, po measured up to 24 hrs; assay type: ADME, organism-based, Canis lupus familiaris; conditions: in vivo
[22] = tested on: MC-38; test: Antitumor activity against mouse MC38 cells xenograted in humanized PD-1 mouse assessed as tumor growth inhibition at 600 mg/kg, po bid for 14 days in combination with PD-1 antibody at 3 mg/kg, ip qod for 8 days by digital caliper method relative to control; assay type: functional; conditions: MC-38, 336 h, time 14 day, read-out: TGI
[23] = Oral bioavailability in Sprague-Dawley rat at 3 mg/kg measured up to 24 hrs; assay type: ADME, organism-based; conditions: in vivo
[24] = Protein binding in human plasma by rapid equilibrium dialysis method; assay type: ADME, cell-free; conditions: read-out: PPB (converted)
[25] = Toxicity in humanized PD-1 mouse xenografted with mouse MC38 cells assessed as effect on body weight at 150 to 600 mg/kg, po bid for 14 days in combination with PD-1 antibody at 3 mg/kg, ip qod for 8 days; assay type: organism-based; conditions: in vivo, 336 h, dose 150-600 mg/kg, time 14 day
[26] = molecular target: Cytochrome P450 2C19 (Homo sapiens, UniProt P33261); test: Inhibition of CYP2C19 in human liver microsomes using S-mephenytoin as substrate incubated for 10 mins in presence of NADPH by UHPLC-MS/MS analysis; assay type: ADME; conditions: read-out: INH
Chain of Cytochrome P450 2C19 (P33261 whole entry): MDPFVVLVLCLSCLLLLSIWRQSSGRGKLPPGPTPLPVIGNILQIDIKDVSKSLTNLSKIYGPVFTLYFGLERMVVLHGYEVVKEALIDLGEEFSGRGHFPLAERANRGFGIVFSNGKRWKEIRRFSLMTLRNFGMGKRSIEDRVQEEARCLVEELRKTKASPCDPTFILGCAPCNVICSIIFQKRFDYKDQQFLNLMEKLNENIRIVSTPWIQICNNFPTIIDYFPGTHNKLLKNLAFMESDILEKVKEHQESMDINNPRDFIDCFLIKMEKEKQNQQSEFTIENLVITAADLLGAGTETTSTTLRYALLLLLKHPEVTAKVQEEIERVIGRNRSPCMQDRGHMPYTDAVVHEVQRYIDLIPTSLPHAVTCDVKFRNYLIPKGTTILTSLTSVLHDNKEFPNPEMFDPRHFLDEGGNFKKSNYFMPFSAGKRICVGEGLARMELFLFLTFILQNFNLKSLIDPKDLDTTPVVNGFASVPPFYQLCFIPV

[27] = molecular target: Indoleamine 2,3-dioxygenase 1 (Mus musculus) (UniProt P28776); test: In vivo inhibition of IDO1 in C57BL/6 mouse assessed as reduction in kynurenine level in plasma at 300 mg/kg, po administered as single dose measured after 2 hrs relative to control; assay type: functional, organism-based
Chain of Indoleamine 2,3-dioxygenase 1 (Mus musculus) (P28776 whole entry, looked up): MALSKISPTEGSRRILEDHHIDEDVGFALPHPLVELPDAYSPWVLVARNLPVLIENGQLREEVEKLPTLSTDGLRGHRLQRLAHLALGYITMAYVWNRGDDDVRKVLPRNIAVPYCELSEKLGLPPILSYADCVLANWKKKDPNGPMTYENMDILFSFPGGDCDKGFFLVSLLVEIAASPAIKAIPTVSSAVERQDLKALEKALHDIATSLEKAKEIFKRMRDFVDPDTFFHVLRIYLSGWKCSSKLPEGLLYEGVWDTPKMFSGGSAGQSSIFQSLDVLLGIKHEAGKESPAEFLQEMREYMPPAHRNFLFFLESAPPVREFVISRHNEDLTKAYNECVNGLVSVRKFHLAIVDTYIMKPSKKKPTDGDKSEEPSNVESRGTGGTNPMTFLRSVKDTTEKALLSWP

[28] = Half life in rat liver microsomes; assay type: ADME, Microsome
[29] = Clearance in Beagle dog at 2 mg/kg, po measured up to 24 hrs; assay type: ADME, organism-based, Canis lupus familiaris; conditions: in vivo
[30] = Protein binding in dog plasma by rapid equilibrium dialysis method; assay type: ADME, cell-free, Canis lupus familiaris; conditions: read-out: PPB (converted)
[31] = Protein binding in rat plasma by rapid equilibrium dialysis method; assay type: ADME, cell-free; conditions: read-out: PPB (converted)
[32] = Half life in C57BL/6 mouse at 3 mg/kg, po measured up to 24 hrs; assay type: ADME, organism-based; conditions: in vivo
[33] = molecular target: Cytochrome P450 2D6 (Homo sapiens, UniProt P10635); test: Inhibition of CYP2D6 in human liver microsomes using dextromethorphan as substrate incubated for 10 mins in presence of NADPH by UHPLC-MS/MS analysis; assay type: ADME
Chain of Cytochrome P450 2D6 (P10635 whole entry): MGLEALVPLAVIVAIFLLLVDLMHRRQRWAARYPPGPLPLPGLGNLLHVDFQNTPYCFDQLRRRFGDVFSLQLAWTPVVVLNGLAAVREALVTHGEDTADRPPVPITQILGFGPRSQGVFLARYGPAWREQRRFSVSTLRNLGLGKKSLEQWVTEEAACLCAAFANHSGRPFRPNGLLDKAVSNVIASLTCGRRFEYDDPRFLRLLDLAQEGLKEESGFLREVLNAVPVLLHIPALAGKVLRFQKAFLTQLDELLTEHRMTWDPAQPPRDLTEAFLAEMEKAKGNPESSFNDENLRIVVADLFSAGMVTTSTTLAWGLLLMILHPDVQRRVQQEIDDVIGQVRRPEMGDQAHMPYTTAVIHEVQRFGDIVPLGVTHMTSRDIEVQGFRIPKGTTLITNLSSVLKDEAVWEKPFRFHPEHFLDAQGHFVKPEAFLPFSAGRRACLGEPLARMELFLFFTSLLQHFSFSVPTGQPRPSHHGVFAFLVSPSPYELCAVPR

[34] = molecular target: Cytochrome P450 2C9 (Homo sapiens, UniProt P11712); test: Inhibition of CYP2C9 in human liver microsomes using tolbutamide as substrate incubated for 10 mins in presence of NADPH by UHPLC-MS/MS analysis; assay type: ADME
Chain of Cytochrome P450 2C9 (P11712 whole entry): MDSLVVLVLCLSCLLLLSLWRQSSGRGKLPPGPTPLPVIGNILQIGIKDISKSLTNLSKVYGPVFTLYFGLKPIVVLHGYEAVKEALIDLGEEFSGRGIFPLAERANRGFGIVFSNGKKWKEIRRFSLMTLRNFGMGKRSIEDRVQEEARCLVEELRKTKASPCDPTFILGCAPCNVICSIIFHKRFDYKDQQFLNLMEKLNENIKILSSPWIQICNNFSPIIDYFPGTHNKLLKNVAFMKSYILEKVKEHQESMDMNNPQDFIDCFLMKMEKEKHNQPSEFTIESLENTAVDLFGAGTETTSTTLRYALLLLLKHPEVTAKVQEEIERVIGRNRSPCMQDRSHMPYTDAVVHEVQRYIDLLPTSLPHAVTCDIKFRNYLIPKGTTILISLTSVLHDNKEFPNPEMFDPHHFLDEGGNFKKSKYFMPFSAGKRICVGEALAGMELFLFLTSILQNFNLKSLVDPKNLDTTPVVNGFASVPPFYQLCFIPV

[35] = molecular target: Voltage-gated inwardly rectifying potassium channel KCNH2 (Homo sapiens, UniProt Q12809); test: Inhibition of human ERG expressed in CHO-K1 cells at -90 mV holding potential by automated patch-clamp method; assay type: cell-based
Chain of Voltage-gated inwardly rectifying potassium channel KCNH2 (Q12809 whole entry): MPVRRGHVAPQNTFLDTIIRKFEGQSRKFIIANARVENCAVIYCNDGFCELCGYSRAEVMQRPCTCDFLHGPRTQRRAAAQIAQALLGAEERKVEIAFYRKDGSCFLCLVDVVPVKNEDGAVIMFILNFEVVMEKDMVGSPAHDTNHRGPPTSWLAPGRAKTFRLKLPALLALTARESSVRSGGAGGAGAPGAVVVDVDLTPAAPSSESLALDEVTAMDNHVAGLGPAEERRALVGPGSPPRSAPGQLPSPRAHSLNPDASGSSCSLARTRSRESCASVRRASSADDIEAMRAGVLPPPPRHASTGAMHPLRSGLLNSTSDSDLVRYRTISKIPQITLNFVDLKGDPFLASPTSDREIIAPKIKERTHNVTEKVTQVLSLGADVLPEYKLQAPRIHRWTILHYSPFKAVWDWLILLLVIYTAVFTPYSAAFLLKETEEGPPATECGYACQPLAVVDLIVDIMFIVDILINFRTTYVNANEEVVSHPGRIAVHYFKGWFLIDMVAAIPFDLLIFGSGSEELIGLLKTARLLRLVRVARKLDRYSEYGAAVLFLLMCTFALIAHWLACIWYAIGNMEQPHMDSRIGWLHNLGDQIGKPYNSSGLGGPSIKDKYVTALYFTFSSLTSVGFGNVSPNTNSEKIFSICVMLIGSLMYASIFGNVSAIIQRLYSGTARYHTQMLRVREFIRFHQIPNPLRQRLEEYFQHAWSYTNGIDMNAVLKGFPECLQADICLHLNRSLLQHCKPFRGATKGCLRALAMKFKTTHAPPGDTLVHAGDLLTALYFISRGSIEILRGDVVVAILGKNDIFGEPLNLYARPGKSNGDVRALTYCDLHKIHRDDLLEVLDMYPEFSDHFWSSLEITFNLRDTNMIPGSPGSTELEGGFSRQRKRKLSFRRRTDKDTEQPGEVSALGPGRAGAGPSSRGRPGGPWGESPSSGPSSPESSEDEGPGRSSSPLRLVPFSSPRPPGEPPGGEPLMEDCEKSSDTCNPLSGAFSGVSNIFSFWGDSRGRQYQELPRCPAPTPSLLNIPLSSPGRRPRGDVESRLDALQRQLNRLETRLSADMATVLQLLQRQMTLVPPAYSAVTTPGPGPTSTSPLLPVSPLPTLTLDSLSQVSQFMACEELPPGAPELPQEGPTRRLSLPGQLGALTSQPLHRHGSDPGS

[36] = tested on: MC-38; test: Antitumor activity against mouse MC38 cells xenografted in humanized PD-1 mouse assessed as tumor growth inhibition at 100 mg/kg, po bid for 14 days in combination with PD-1 antibody at 3 mg/kg, ip qod for 8 days by digital caliper method relative to control; assay type: functional; conditions: MC-38, 336 h, time 14 day, read-out: TGI
[37] = Toxicity in humanized PD-1 mouse xenografted with mouse MC38 cells assessed as effect on body weight at 100 mg/kg, po bid for 14 days in combination with PD-1 antibody at 3 mg/kg, ip qod for 8 days; assay type: organism-based; conditions: in vivo, 336 h, time 14 day

Chain of Tryptophan 2,3-dioxygenase (P48775 whole entry): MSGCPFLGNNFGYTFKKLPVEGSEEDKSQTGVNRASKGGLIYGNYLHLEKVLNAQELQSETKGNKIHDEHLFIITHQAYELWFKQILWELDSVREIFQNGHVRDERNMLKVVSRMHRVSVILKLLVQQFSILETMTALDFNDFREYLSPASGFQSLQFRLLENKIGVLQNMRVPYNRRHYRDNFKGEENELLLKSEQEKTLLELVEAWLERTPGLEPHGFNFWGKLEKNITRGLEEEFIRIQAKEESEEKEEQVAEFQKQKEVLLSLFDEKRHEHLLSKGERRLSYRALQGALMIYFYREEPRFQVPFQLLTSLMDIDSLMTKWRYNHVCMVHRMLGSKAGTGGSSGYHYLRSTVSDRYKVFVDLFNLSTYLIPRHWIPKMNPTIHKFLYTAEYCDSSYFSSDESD

| SMILES | pIC50 [1] | pIC50 [2] | pIC50 [3] | bioavailability [4] [%] | Cmax [5] [ng/mL] | half-life [6] [min] | clearance [7] [mL/min/kg] | bioavailability [8] [%] | clearance [10] [mL/min/kg] | INH [11] [µM] | half-life [12] [min] | AUC at 24 h [14] [ng·h/mL] | INH [15] [µM] | AUC at 24 h [16] [ng·h/mL] | AUC at 24 h [17] [ng·h/mL] | Cmax [18] [ng/mL] | Cmax [19] [ng/mL] | half-life [21] [min] | bioavailability [23] [%] | fraction unbound [24] | further results |
| --- | --- | --- | --- | --- | --- | --- | --- | --- | --- | --- | --- | --- | --- | --- | --- | --- | --- | --- | --- | --- | --- |
| O=C(/C(=N/O)Nc1ccc(F)c(Br)c1)c1ccccc1 | 4.10 | 6.39 | 5.85 |  |  |  |  |  |  |  |  |  |  |  |  |  |  |  |  |  |  |
| O=C(Nc1ccccc1)[C@H]1CC[C@H](C(=O)/C(=N/O)Nc2ccc(F)c(Br)c2)CC1 | < 4.00 | 6.82 | 6.71 |  |  |  |  |  |  |  |  |  |  |  |  |  |  |  |  |  |  |
| NS(=O)(=O)N1CCC(C(=O)/C(=N/O)Nc2ccc(F)c(Br)c2)CC1 | 4.20 | 7.20 | 7.35 | 44 | 179 | 368 | 16.7 | 102 | 61.2 | > 10 | 349 | 3630 | > 10 | 1530 | 358 | 127 | 742 | 182 | 58.8 | 0.036 | TGI [9]: Dose-dependent effect; inhibition in vivo at 300 mg/kg [13]: 71.7%; inhibition in vivo at 150 mg/kg [20]: 60.3%; inhibition in vivo at 600 mg/kg [22]: 86.8%; Activity [25]: Non-Toxic; pIC50 [26]: < 5.00; inhibition [27]: 87.8%; half-life [28]: 93.4 min; clearance [29]: 9.3 mL/min/kg; fraction unbound [30]: 0.04; fraction unbound [31]: 0.076; half-life [32]: 72.6 min; INH [33]: > 10 µM; INH [34]: > 10 µM; INH [35]: > 30 µM |
| NS(=O)(=O)NCCNc1nonc1C(=NO)Nc1ccc(F)c(Br)c1 [EPACADOSTAT] | < 4.00 |  |  | 44 | 133 | 164 | 29 | 50 | 49.2 | > 10 | 293 | 676 | > 10 | 807 | 1020 | 253 | 245 | 302 | 55 | 0.015 | inhibition in vivo at 100 mg/kg [36]: 66.9%; pIC50 [26]: < 5.00; half-life [28]: 73.1 min; clearance [29]: 36.6 mL/min/kg; fraction unbound [30]: 0.025; fraction unbound [31]: 0.03; half-life [32]: 145 min; INH [33]: > 10 µM; INH [34]: > 10 µM; Activity [37]: Non-Toxic; INH [35]: > 30 µM |
| O=C(/C(=N/O)Nc1ccc(F)c(Br)c1)C1CCN(C(=O)c2ccccc2)CC1 | < 4.00 | 6.97 | 6.55 |  |  |  |  |  |  |  |  |  |  |  |  |  |  |  |  |  |  |

Source: ChEMBL document CHEMBL4673401 (ACS Med Chem Lett, 2021)
